Source: US20240180872A1, “METHODS AND COMPOUNDS OF CANNABIDIOL, MELATONIN AND AKBA FOR TREATING PANCREATIC CANCER” (priority 2021, published 2024)

Key:
PANC-1 cell line = assay: Cytotoxicity assay (MTT, 72 hours, daily administration) in PANC-1; settings: Homo sapiens, PANC-1, read-out: % VIABILITY ± S.D.
Protocol: (§2) Human pancreatic ductal adenocarcinoma (PANC-1 and MIAPaCa-2) cell lines were purchased by Sigma Aldrich (Milan, Italy) and cultured in DMEM high glucose medium (EuroClone, Milan, Italy) supplemented with 10% of fetal bovine serum (FBS), 2 mM L-glutamine, 100 IU/mL penicillin, 100 mg streptomycin and 1 mM sodium pyruvate. Cell lines were maintained at 37° C. with 5% CO2 and 95% of humidity.
(§3) 3×10^4 cells/mL were seeded in 96-well plates in a final volume of 100 L/well. After one day of incubation, compounds or vehicles, alone or in combination, were added and six replicates were used for each treatment and all experiments were repeated three times. In all the experiments, the treatment was daily added, after washing with fresh medium. After 72 hours cell viability was investigated by adding 0.8 mg/mL of 3-[4,5-dimethylthiazol-2-yl]-2,5 diphenyl tetrazolium bromide (MTT) (Sigma Aldrich) to the media. After 3 h the supernatant was removed, and the pellet of salt crystals was solubilized with 100 μL/well of DMSO. The absorbance of the sample against a background control was measured at 570 nm using an ELISA reader microliter plate (BioTek Instruments, Winooski, VT, USA).
(§4) Cytotoxicity in PDAC cell lines: The effect of CBD, MLT and AKBA in reducing cell viability was evaluated at 72 hours, post daily administration, in PDAC cell lines. Cells were treated with different doses of CBD, MLT and AKBA (up to 1 mg) and percentage of cell viability was evaluated by the MTT assay. […] The compounds were administered daily for 72 hours, as in previous experiments at the desired doses. […] MTT assay was used to analyse the cell cytotoxicity.

[1] = test system: PCEM004a endometrial cancer cell line; assay: Cytotoxicity assay (MTT, 72 hours, daily administration) in PCEM004a; format: cell-based; settings: Homo sapiens, read-out: % VIABILITY ± S.D.
Excerpt: (§1) The combinations were effective in other human tumor cell lines and we tested in glioblastoma cell line and endometrial cancer cell Additional tests include data obtained from two independent experiments, six wells for dose.

MIAPaCa-2 cell line = assay: Cytotoxicity assay (MTT, 72 hours, daily administration) in MIAPaCa-2; settings: Homo sapiens, MIA PaCa-2, read-out: % VIABILITY ± S.D.
Protocol: as §2, §3, §4

[2] = test system: U251 Glioblastoma cell line; assay: Cytotoxicity assay (MTT, 72 hours, daily administration) in U251; format: cell-based; settings: Homo sapiens, U-251, read-out: % VIABILITY ± S.D.
Excerpt: as §1

[3] = test system: pancreatic adenocarcinoma associated genes; assay: TaqMan Array gene expression in PANC-1, normalized for GAPDH; settings: 24 hs, CBD 3.8, MLT 200, AKBA 7.5 micrograms/ml
Protocol: Total RNA from untreated or CBD, MLT, AKBA alone and in combination treated cell lines was extracted using Rneasy Mini kit (Qiagen, Milan, Italy). One microgram of total RNA from each sample was subjected to reverse transcription in a total volume of 20 μL using the High-Capacity cDNA Archive Kit (Applied Biosystem, Foster City, […], USA) according to the instructions. cDNAs were analyzed by qRT-PCR performed using an IQ5 Multicolor Real time PCR Detection system. Quantitative real-time gene expression was performed with the TaqMan® Array Human Pancreatic Adenocarcinoma 96-well Plate, containing 92 assays to pancreatic adenocarcinoma associated genes and 4 assays to candidate endogenous control genes, was purchased (Thermo Fisher, Grand Island, NY, USA) and used to evaluate the treatments in modulating PDAC-related genes (Table 1). Measurement of different housekeeping genes (GAPDH; HPRT1; GUSB) on the samples was used to normalize mRNA content. The gene expression levels of treated cell lines were expressed as relative fold compared with untreated or vehicle-treated cells.
To elucidate the molecular events induced by CBD, MLT and AKBA alone and in combination, 92 genes involved in PDAC progression and aggressiveness were evaluated by Taqman Array. Both cell lines were treated with CBD, MLT and AKBA alone and in combination, and the molecular pathways of PDAC associated gene were evaluated.
Target mRNA levels were normalized for GAPDH expression.

CC(=O)O[C@@H]1CC[C@@]2(C)[C@@H](CC[C@]3(C)[C@@H]2C(=O)C=C2[C@@H]4[C@@H](C)[C@H](C)CC[C@]4(C)CC[C@]23C)[C@@]1(C)C(=O)O [AKBA, (3R,4R,4aR,6aR,6bS,8aR,11R,12S,12aR,14aR,14bS)-3-acetyloxy-4,6a,6b,8a,11,12,14b-heptamethyl-14-oxo-1,2,3,4a,5,6,7,8,9,10,11,12,12a, 14a-tetradecahydropicene-4-carboxylic acid]
viability at 5 µg/mL (PANC-1 cell line): 92.1 ± 5.3% | viability at 7.5 µg/mL (PANC-1 cell line): 86.2 ± 6.6% | viability at 10 µg/mL (PANC-1 cell line): 78.2 ± 5.9% | viability at 15 µg/mL (PANC-1 cell line): 55.3 ± 4.4% | viability at 5 µg/mL ([1]; AKBA 5 micrograms/ml): 100 ± 7.5% | viability at 7.5 µg/mL ([1]; AKBA 7.5 micrograms/ml): 98.4 ± 6.3% | viability at 10 µg/mL ([1]; AKBA 10 micrograms/ml): 87.4 ± 5.8% | viability at 15 µg/mL ([1]; AKBA 15 micrograms/ml): 60.2 ± 5.4% | viability at 5 µg/mL (MIAPaCa-2 cell line): 110 ± 7.3% | viability at 7.5 µg/mL (MIAPaCa-2 cell line): 74.8 ± 6.2% | viability at 10 µg/mL (MIAPaCa-2 cell line): 55.3 ± 4.8% | viability at 15 µg/mL (MIAPaCa-2 cell line): 12.1 ± 0.9% | viability at 5 µg/mL ([2]; AKBA 5 micrograms/ml): 100 ± 5.3% | viability at 7.5 µg/mL ([2]; AKBA 7.5 micrograms/ml): 100 ± 6.6% | viability at 10 µg/mL ([2]; AKBA 10 micrograms/ml): 100 ± 2.2% | viability at 15 µg/mL ([2]; AKBA 15 micrograms/ml): 76.4 ± 4.2% | AKT3 mRNA relative expression ([3]; VEI 0.00): 0.00 | ARHGEF7 mRNA relative expression ([3]; VEI 0.00): 0.00 | BCL2 mRNA relative expression ([3]; VEI 0.00): 0.00 | CCND2 mRNA relative expression ([3]; VEI 0.00): 0.00 | CDKN2B mRNA relative expression ([3]; VEI 0.00): 0.20 | CYP2E1 mRNA relative expression ([3]; VEI 0.00): 0.00 | EGF mRNA relative expression ([3]; VEI 0.00): 0.00 | IGF1 mRNA relative expression ([3]; VEI 0.00): 0.00 | IL6 mRNA relative expression ([3]; VEI 0.00): 0.00 | KDR mRNA relative expression ([3]; VEI 0.00): 0.00 | KIT mRNA relative expression ([3]; VEI 0.00): 0.00 | MAPK3 mRNA relative expression ([3]; VEI 0.00): 0.00 | MMP1 mRNA relative expression ([3]; VEI 0.00): 0.02 | MMP3 mRNA relative expression ([3]; VEI 0.00): 0.00 | TGFA mRNA relative expression ([3]; VEI 0.00): 0.02 | TGFB2 mRNA relative expression ([3]; VEI 0.00): 0.12 | JAK2 mRNA relative expression ([3]; VEI 0.01): 0.04 | JAK3 mRNA relative expression ([3]; VEI 0.01): 0.03 | MMP7 mRNA relative expression ([3]; VEI 0.01): 0.03 | MMP9 mRNA relative expression ([3]; VEI 0.01): 0.03 | PK3CA mRNA relative expression ([3]; VEI 0.01): 0.02 | RAC2 mRNA relative expression ([3]; VEI 0.01): 0.01 | RB1 mRNA relative expression ([3]; VEI 0.01): 0.15 | TGFB3 mRNA relative expression ([3]; VEI 0.01): 0.05 | TGFBR1 mRNA relative expression ([3]; VEI 0.02): 0.07 | BRCA2 mRNA relative expression ([3]; VEI 0.03): 0.10 | CDKN2D mRNA relative expression ([3]; VEI 0.03): 0.05 | MDM2 mRNA relative expression ([3]; VEI 0.03): 0.04 | RHOB mRNA relative expression ([3]; VEI 0.03): 0.05 | CDKN2C mRNA relative expression ([3]; VEI 0.04): 0.12 | PK3R1 mRNA relative expression ([3]; VEI 0.04): 0.03 | PTGS2 mRNA relative expression ([3]; VEI 0.04): 0.08 | STATSB mRNA relative expression ([3]; VEI 0.04): 0.20 | MAPK1 mRNA relative expression ([3]; VEI 0.05): 0.60 | SMAD2 mRNA relative expression ([3]; VEI 0.05): 0.04 | CCND1 mRNA relative expression ([3]; VEI 0.06): 0.10 | MAP2K2 mRNA relative expression ([3]; VEI 0.06): 0.10 | PK3CD mRNA relative expression ([3]; VEI 0.06): 0.05 | TGFBR2 mRNA relative expression ([3]; VEI 0.06): 0.10 | VEGFA mRNA relative expression ([3]; VEI 0.06): 0.45 | VEGFB mRNA relative expression ([3]; VEI 0.06): 0.18 | CCNA2 mRNA relative expression ([3]; VEI 0.07): 0.10 | CCNE2 mRNA relative expression ([3]; VEI 0.07): 0.06 | EZF3 mRNA relative expression ([3]; VEI 0.07): 0.07 | SMAD4 mRNA relative expression ([3]; VEI 0.07): 0.09 | SOS1 mRNA relative expression ([3]; VEI 0.07): 0.10 | TGFB1 mRNA relative expression ([3]; VEI 0.07): 0.15 | MAP2K1 mRNA relative expression ([3]; VEI 0.08): 0.10 | MMP2 mRNA relative expression ([3]; VEI 0.08): 0.20 | VEGFC mRNA relative expression ([3]; VEI 0.08): 0.12 | CCNE1 mRNA relative expression ([3]; VEI 0.09): 0.10 | CDK2 mRNA relative expression ([3]; VEI 0.09): 0.10 | KRAS mRNA relative expression ([3]; VEI 0.09): 0.09 | RAC1 mRNA relative expression ([3]; VEI 0.09): 0.10 | REL mRNA relative expression ([3]; VEI 0.09): 0.08 | STAT2 mRNA relative expression ([3]; VEI 0.09): 0.11 | CDKN1B mRNA relative expression ([3]; VEI 0.10): 0.10 | CDKN2A mRNA relative expression ([3]; VEI 0.10): 0.12 | RELA mRNA relative expression ([3]; VEI 0.10): 0.10 | AKT1 mRNA relative expression ([3]; VEI 0.11): 0.20 | PK3CB mRNA relative expression ([3]; VEI 0.11): 0.16 | FIGF mRNA relative expression ([3]; VEI 0.14): 0.00 | TP53 mRNA relative expression ([3]; VEI 0.14): 0.38 | EZF4 mRNA relative expression ([3]; VEI 0.16): 0.18 | NFKB2 mRNA relative expression ([3]; VEI 0.16): 0.10 | EZF1 mRNA relative expression ([3]; VEI 0.17): 0.14 | SMAD3 mRNA relative expression ([3]; VEI 0.17): 0.20 | STAT1 mRNA relative expression ([3]; VEI 0.18): 0.31 | BRAF mRNA relative expression ([3]; VEI 0.22): 0.18 | BIRC5 mRNA relative expression ([3]; VEI 0.23): 0.22 | JAK1 mRNA relative expression ([3]; VEI 0.23): 1.10 | CDK4 mRNA relative expression ([3]; VEI 0.24): 0.25 | EGFR mRNA relative expression ([3]; VEI 0.24): 0.18 | RAF1 mRNA relative expression ([3]; VEI 0.25): 0.08 | CCNB1 mRNA relative expression ([3]; VEI 0.27): 0.20 | ERBB2 mRNA relative expression ([3]; VEI 0.27): 0.07 | SRC mRNA relative expression ([3]; VEI 0.27): 0.14 | GRB2 mRNA relative expression ([3]; VEI 0.31): 0.38 | BCL2L1 mRNA relative expression ([3]; VEI 0.35): 0.23 | HSP90AA1 mRNA relative expression ([3]; VEI 0.35): 0.22 | NFKB1 mRNA relative expression ([3]; VEI 0.35): 0.10 | RHOA mRNA relative expression ([3]; VEI 0.37): 0.30 | ELK1 mRNA relative expression ([3]; VEI 0.41): 0.11 | RELB mRNA relative expression ([3]; VEI 0.42): 0.12 | CDC42 mRNA relative expression ([3]; VEI 0.45): 0.02 | CDKN1A mRNA relative expression ([3]; VEI 0.49): 0.28 | AKT2 mRNA relative expression ([3]; VEI 0.50): 0.41 | HBEGF mRNA relative expression ([3]; VEI 0.53): 0.44 | NOTCH1 mRNA relative expression ([3]; VEI 1.03): 0.05 | STAT6 mRNA relative expression ([3]; VEI 1.38): 0.13 | STAT3 mRNA relative expression ([3]; VEI 4.45): 0.18
